Where two headings read alike, the source gives them in different places.
Assays:
ARPE-19 cells [1] = experiment: Comparative assay No. 1: effective doses of taurine and ZnSO4, ARPE-19 cell proliferation; type: cell-based, human
Protocol: (§1) In the assays hereinafter described, the ARPE-19 human retinal pigmented epithelial cell line was used.
(§2) ARPE-19 cells grown in an appropriate medium [mixture of DMEM [Dulbecco's modified Eagle's medium) and Ham's F12 medium] containing 10% of heat-inactivated fetal calf serum; 2 mM glutamine; 0.1 mM of minimum essential medium; a solution of non-essential amino acids and gentamicin sulfate, in 96-well microplates, were exposed to various concentrations of an aqueous hydrogen peroxide solution (H2O2) being toxic for these cells. The cellular levels of ATP were measured using the commercially available assay which measures ATP production, “ATPLite-M”, manufactured by Perkin Elmer, using a multiplate reader from Perkin Elmer Life Sciences, Boston, Mass. This assay is based on the principle that ATP production is dependent on cell viability and that a decrease or increase in ATP reflects a corresponding alteration in cell viability.
In this assay, the effect of taurine or of N-acetylated taurine and of zinc sulfate on ARPE-19 cell proliferation was compared.

ARPE-19 cells [2] = experiment: Comparative assay No. 2: cytoprotective effect in oxidizing medium (H2O2); type: cell-based, human; conditions: for protection against oxidative stress (ATP production): then H2O2 700 μM for 24 hours; for effect on the production of ATP by ARPE-19 cells treated and then exposed to H2O2: summary statement
Protocol: The cells were then subjected, for 24 hours, to treatment with aqueous hydrogen peroxide solution at 700 μM.

ARPE-19 cells [3] = experiment: Comparative assay No. 3: comparison with the known antioxidants DHA, lutein and zeaxanthin; type: cell-based, human
Protocol: as §1, §2
(§3) The protective effect of ATA-Zn was assayed by treating the ARPE-19 cells with ATA-Zn and subsequently exposing them to the aqueous hydrogen peroxide solution. […] The results of these assays are reported in FIGS. 5 to 9, which are graphs showing the ATP production, expressed as a percentage relative to the ATP production by control cells (having received only the carrier) as a function of the concentrations of H2O2, of ATA-Zn or of the comparative substances. […]

[4] = Solubility of the prepared product; type: physicochemical; conditions: white powder
ARPE-19 cells [5] = experiment: Assay 3: cytoprotective effect of ATA-Zn on cells subjected to various concentrations of H2O2; type: cell-based, human; conditions: 10^−8 M, one and a half hours before exposure to H2O2
Protocol: as §1
(§4) In order to assess the protective role of ATA-Zn with respect to an oxidative stress of the retinal epithelium, the following experimental model was used.
(§5) ARPE-19 cells grown in an appropriate medium [mixture of DMEM [Dulbecco's modified Eagle's medium) and Ham's F12 medium] containing 10% of heat-inactivated fetal calf serum; 2 mM glutamine; 0.1 mM of minimum essential medium; a solution of non-essential amino acids and gentamicin sulfate, in 96-well microplates, were exposed to various concentrations of an aqueous hydrogen peroxide solution (H2O2) being toxic for these cells. The cellular levels of ATP were measured using the commercially available assay which measures ATP production, “ATPLite-M”, manufactured by Perkin Elmer, using a multiplate reader from Perkin Elmer Life Sciences, Boston, Mass. […]
as §3

ARPE-19 cells [6] = experiment: Assay 2: anti-oxidative stress cytoprotective effect, ATP production after H2O2; type: cell-based, human; conditions: 1.5 hours before H2O2 700 μm
Protocol: as §1, §4, §2
The protective effect of ATA-Zn was assayed by treating the ARPE-19 cells with ATA-Zn and subsequently exposing them to the aqueous hydrogen peroxide solution. Various exposure times and various doses were used. Comparative assays were also carried out. The results of these assays are reported in FIGS. 5 to 9, which are graphs showing the ATP production, expressed as a percentage relative to the ATP production by control cells (having received only the carrier) as a function of the concentrations of H2O2, of ATA-Zn or of the comparative substances.
In this assay, the concentrations of ATA-Zn which induce a significant ATP production via the ARPE-19 cells were used, and then, after 1.5 hours, the cells were subjected to a treatment with H2O2 at the toxic dose of 700 μm.

lipofuscin accumulation = experiment: Intracellular accumulation of lipofuscin in retina, prostate and hippocampus of aged rats (fluorescence image analysis); type: in vivo, Sprague-Dawley albino rats; conditions: 40 mg/kg per os once a day for 4 weeks, vs control animals (carrier)
Protocol: The activity of ATA-Zn on aging was measured by determining the amount of lipofuscin in certain tissues in aged rats (retina, prostate and hippocampus).
Male Sprague-Dawley albino rats, aged 16 months, were placed in standard plastic cages, in groups of 5, with water and food ad libitum. The living conditions of the animals were the following: day:night light cycle, 12:12 h, constant temperature of 22±2° C. and relative humidity of 60%.
For the chronic treatment, ATA-Zn was administered to the rats, per os, once a day, for 4 weeks, at the dose of 40 mg/kg (n=6). The control animals received only water (carrier) for the same period of time (n=6). 24 hours after the end of the treatment, the rats were anesthetized with equithesin ([…], i.p.) and perfused transcardially with 1% paraformaldehyde and 1.25% glutaraldehyde in a 0.1% sodium cacodylate buffer (pH 7.4) obtained from arsenous anhydride and potassium acetate.
The samples of the tissues taken (retina, prostate and hippocampus) were then cut into small pieces (1 mm^3) on a cryostat and added to a mixture of formaldehyde and glutaraldehyde in a cacodylate buffer for 2 hours. The samples were then mixed with osmium tetroxide, dehydrated in increasing concentrations of acetone and toluene and, finally, embedded into blocks of resin (EPON resin). The pieces of tissues thus processed were examined under an Olympus BX-60 fluorescence microscope.
The fluorescence in all the tissues was quantified using an image analysis system (KS 300; Karl Zeiss). The analysis was carried out by measuring the percentage surface area hidden by the presence of fluorescence and compared with a standard zone of 2000 μm^2 (lipofuscin fluorescence expressed as % surface area relative to the standard zone) using an ×40 objective magnification and a Zeiss Sound Vision digital microscope video camera (total enlargement on the computer screen ×7500). The values measured in the areas with no fluorescence in the pieces of tissues were subtracted, as background noise, from the resulting binary image. […]

ARPE-19 cells [7] = experiment: Assay 1: effective doses of ATA-Zn and its toxicity, ATP production (ATPLite-M); type: cell-based, human; conditions: 24 hours after addition
Protocol: as §1, §5
The ARPE-19 cells were treated with various concentrations of ATA-Zn (10^−3 to 10^−9 M) dissolved in a carrier consisting of a serum-free culture medium containing 0.01% of DMSO (concentration known not to affect cell viability). The ATP production by the ARPE-19 cells thus treated was determined 24 hours after the addition of ATA-Zn. The ATP production by control cells treated only with the serum-free culture medium containing 0.01% of DMSO (carrier) was also determined.

Compound | proliferative effect on the ARPE-19 cells (ARPE-19 cells [1]; 2 mM and 10^−8 M) | protection against oxidative stress (ATP production) (ARPE-19 cells [2]; pretreatment) | effect on the production of ATP by ARPE-19 cells treated and then exposed to H2O2 (ARPE-19 cells [2]) | proliferative effect on the ARPE-19 cells (ARPE-19 cells [1]; 30 μM and 10^−8 M) | protection against oxidative stress (ATP production) (ARPE-19 cells [2]; 30 μM pretreatment) | protection against oxidative stress (ATP production) (ARPE-19 cells [2]; 10^−8 M pretreatment) | effect on ATP production compared with DHA, lutein and zeaxanthin (ARPE-19 cells [3]) | effect on ATP production compared with DHA, lutein and zeaxanthin (ARPE-19 cells [3]; listed as zinc N-acetyltaurinate) | solubility in ethanol [4] | solubility in water [4] | protection against oxidative stress induced by various concentrations of H2O2 (ATP production) (ARPE-19 cells [5]) | protection against oxidative stress (ATP production) (ARPE-19 cells [6]; 10^−7 M) | protection against oxidative stress (ATP production) (ARPE-19 cells [6]; 10^−8 M) | protection against oxidative stress (ATP production) (ARPE-19 cells [6]; 10^−9 M) | lipofuscin fluorescence (% surface area) in the hippocampus (lipofuscin accumulation) | lipofuscin fluorescence (% surface area) in the prostate (lipofuscin accumulation) | lipofuscin fluorescence (% surface area) in the retina (lipofuscin accumulation) | ATP production / cell viability (toxicity) (ARPE-19 cells [7]; 10^−3 M) | ATP production / cell viability (ARPE-19 cells [7]; 10^−9 M, 10^−8 M and 10^−7 M)
NCCS(=O)(=O)O [taurine] | neither zinc sulfate nor taurine at the various concentrations used were capable of inducing a significant proliferative effect | not capable of protecting the cells | no effect | – | – | – | – | – | – | – | – | – | – | – | – | – | – | – | –
O=S(=O)([O-])[O-].[Zn+2] [zinc sulfate] | – | – | no effect | neither zinc sulfate nor taurine at the various concentrations used were capable of inducing a significant proliferative effect | not capable of protecting the cells | protective effect which is less than that of ATA-Zn | – | – | – | – | – | – | – | – | – | – | – | – | –
zinc N-acetyltaurinate [ATA-Zn] | – | protect the ARPE-19 cells against oxidative stress | has an effect | – | – | – | effect comparable to the known antioxidants | virtually identical to or even greater than | poorly soluble in ethanol | soluble in water | capable of protecting the ARPE-19 cells against oxidative stress | potentiates the toxic effect of H2O2 | capable of protecting the cells against oxidative stress | not effective | significant reduction | significant reduction | significant reduction | toxic | capable of inducing an increase in cell viability

Source: patent publication US9029419B2, “Use of zinc N-acetyltaurinate” (TRI-INOV, priority 2008, dated 2015)
